Molecular target: T1, TPα (Homo sapiens, UniProt P21731)
T1 construct: expressed in transfected cells
T1 sequence (P21731 1-343): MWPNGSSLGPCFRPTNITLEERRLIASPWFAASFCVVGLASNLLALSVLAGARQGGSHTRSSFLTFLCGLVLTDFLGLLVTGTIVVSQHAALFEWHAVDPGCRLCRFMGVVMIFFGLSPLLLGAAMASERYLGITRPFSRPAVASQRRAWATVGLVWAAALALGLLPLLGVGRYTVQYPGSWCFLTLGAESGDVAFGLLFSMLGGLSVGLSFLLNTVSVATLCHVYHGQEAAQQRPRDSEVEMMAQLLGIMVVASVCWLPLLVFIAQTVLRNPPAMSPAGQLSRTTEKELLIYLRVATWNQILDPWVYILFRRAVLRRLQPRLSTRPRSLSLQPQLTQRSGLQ
Test: Intracellular calcium mobilization, HEK.TPα cells
Assay type: cell-based
Conditions: HEK.TPα
Method: Measurement of intracellular calcium mobilization ([Ca^2+]i) in FURA2/AM preloaded HEK 293 cell lines (2 × 10^6 cells/dish), each transiently co-transfected with pADVA (10 μg), and pCMV:Gαq (25 μg), was carried out as previously described. To investigate the effect of GRK2/βARK1 on TP-mediated [Ca^2+]i mobilization, HEK.TPα or HEK.TPβ cells (2 × 10^6 cells/dish) were co-transfected with pADVA (10 μg), pCMV:Gαq (25 μg) along with pRK5:βARK1^495–689 (25 μg), encoding a dominant negative form of GRK2/βARK1[39]. Approximately 48 h post-transfection, cells were harvested by scraping, washed twice in ice-cold PBS and resuspended in HBSSHB (modified Ca^2+/Mg^2+-free Hank's buffered salt solution, containing […], pH 7.67, 0.1% bovine serum albumin (BSA)) buffer at 10^7 cells/ml and incubated in the dark with 5 μM FURA2/AM for 45 min at 37 °C. Cells were collected by centrifugation (900×g, 5 min), washed once in an equal volume of HBSSHB, and were finally resuspended in HBSSHB buffer at 10^7 cells/ml and kept at room temperature in the dark for 40 min. For each measurement of [Ca^2+]i mobilization, aliquots of cells were diluted to 0.825 × 10^6 cells/ml in HBSSHB, 1 mM CaCl2 and FURA2 fluorescence was recorded (2 ml aliquots of cells) at 37^ °C with gentle stirring with a Perkin Elmer-Cetus LS50-B spectrofluorometer at excitation wavelengths of 340 nm and 380 nm and emission wavelength of 510 nm, respectively.
[…] To assess agonist-mediated homologous desensitization, cells (0.825 × 10^6 cells/ml; 2 ml per assay) were stimulated with 1 μM U46619 (Primary stimulation) or, as a control, with the vehicle for 4 min; thereafter, cells were collected by centrifugation (900×g, 5 min); were washed twice in 2 ml HBSSHB, 1 mM CaCl2; and finally resuspended in 2 ml HBSSHB,1 mM CaCl2 and were left to recover over various time intervals (ranging from 0 to 60 min); thereafter, cells re-stimulated with 1 μM U46619 (Secondary stimulation) and changes in [Ca^2+]i mobilization were monitored as a function of time. To assess the role of protein kinase (PK) A, PKC or PKG on U46619-mediated desensitization of TPα signalling, cells were pre-incubated with the PKA inhibitor H-89 (10 μM), the PKC inhibitor GF 109203X (50 nM) or the PKG inhibitor KT 5823 (50 nM), for 15 min and respective kinase inhibitors were maintained throughout the primary/secondary U46619-stimulations and during the washes.
The vehicle had no effect on U46619-mediated [Ca^2+]i mobilization. Calibration of the signal was performed in each sample by adding 0.2% Triton X-100 to obtain the maximal fluorescence ratio (Rmax) and then 1 mM EGTA to obtain the minimal fluorescence ratio (Rmin). The ratio of the fluorescence at 340 nm to that at 380 nm is a measure of [Ca^2+]i, which assumes a Kd of 225 nM Ca^2+ for FURA2/AM. The results presented in the figures are representative data from at least three or four independent experiments and are plotted as changes in Ca^2+i mobilized (Δ[Ca^2+]i (nM)) as a function of time (s) upon ligand stimulation. Changes in [Ca^2+]i mobilization were determined by measuring peak rises in [Ca^2+]i mobilized (Δ[Ca^2+]i) and were calculated as mean changes in Δ[Ca^2+]i ± S.E.M. (nM).

## CCCCC[C@H](O)/C=C/[C@@H]1[C@@H](C/C=C\CCCC(=O)O)[C@H]2CO[C@@H]1C2 [U46619]
+ GRK^DN (βARK1^495–689), primary 1 μM U46619
  Δ[Ca2+]i, U46619-induced: 150 ± 7.5 nM
+ GRK^DN, secondary 1 μM U46619 at 15 min
  Δ[Ca2+]i, U46619-induced: 0 nM
Primary stimulation, 1 μM U46619 4 min
  Δ[Ca2+]i, U46619-induced: 174 ± 8.8 nM
Secondary stimulation 1 μM U46619 at 15 min after primary, after washout
  Δ[Ca2+]i, U46619-induced: 0 nM
Secondary stimulation 1 μM U46619 at 60 min after primary, after washout
  Δ[Ca2+]i, U46619-induced: 0 nM
Vehicle as primary stimulation, washout, 1 μM U46619 at 60 min
  Δ[Ca2+]i, U46619-induced: 191.5 ± 25.5 nM
− GRK^DN (pRK5 control), primary 1 μM U46619
  Δ[Ca2+]i, U46619-induced: 165 ± 9 nM
− GRK^DN, secondary 1 μM U46619 at 15 min
  Δ[Ca2+]i, U46619-induced: 0 nM

From PMC2680961, “Homologous desensitization of signalling by the alpha (α) isoform of the human thromboxane A2 receptor: A specific role for nitric oxide signalling” (Biochimica et Biophysica Acta, 2007)
